The supplement of paper PMC10627819
≈ marks a conversion by molar mass, not a printed value.

Assays:
[1] = system: B. subtilis 168; experiment: Bliss interaction score (quartile over a dose matrix) (fitness difference); higher = more antagonism (negative = synergy)
Outline: (§1)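 The Bliss score subtracts expected fitness, the product of the single-drug fitness values, from observed fitness. Fitness is plate-normalised OD595 at entry into stationary phase, relative to the robust no-drug mean and capped at 1, with single-drug fitness inferred from combinations. Summaries are quartiles over technical, biological and donor/recipient replicates.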

[2] = system: S. aureus Newman; experiment: as above
Outline: as §1

[3] = system: S. aureus DSM 20231; experiment: as above
Outline: as §1

[4] = system: S. pneumoniae D39V; experiment: as above
Outline: as §1

[5] = system: B. subtilis 168; experiment: fitness (endpoint OD595 vs no drug) (fraction); higher = more growth
Outline: (§2)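 Volumes were 30 µl per well, or 55 µl for S. pneumoniae, in 384-well plates inoculated at OD595 0.01. Media were TSB, LB Lennox or CY at 37 °C, and OD595 was read every 30 min for 14 h with first-reading background subtraction. Fitness is the ratio of optical density at stationary-phase entry to the robust mean of no-drug controls. That ratio is capped at 1.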

[6] = system: S. aureus Newman; experiment: as above
Outline: as §2

[7] = system: S. aureus DSM 20231; experiment: as above
Outline: as §2

[8] = system: S. pneumoniae D39V; experiment: as above
Outline: as §2

[9] = system: S. aureus Newman
[10] = system: S. aureus DSM 20231
[11] = system: S. pneumoniae D39V
[12] = system: B. subtilis 168
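Wherever Bliss interaction score (quartile over a dose matrix) is given: first quartile when negative (synergy) and third quartile when positive (antagonism).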

Cc1cc(NS(=O)(=O)c2ccc(N)cc2)no1 [Sulfamethoxazol] + CC1=C\[C@@H](O)CC(=O)Cc2nc(co2)C(=O)N2CCC=C2C(=O)O[C@H](C(C)C)[C@H](C)/C=C/C(=O)NC\C=C\1 [Virginiamycin M1]
Settings	Bliss interaction score
[1]	0.0577
[2]	0.0283
[3]	0.0829
[4]	-0.05

one replicate
Settings	fitness
[5], first compound 0.5 µg/mL, partner 0.0625 µg/mL	0.982
[5], first compound 0.5 µg/mL, partner 0.125 µg/mL	0.928
[5], first compound 0.5 µg/mL, partner 0.25 µg/mL	≥ 1
[6], first compound 1 µg/mL, partner 0.5 µg/mL	0.873
[6], first compound 1 µg/mL, partner 1 µg/mL	0.869
[6], first compound 1 µg/mL, partner 2 µg/mL	0.841
[6], first compound 2 µg/mL, partner 0.5 µg/mL	0.911
[6], first compound 2 µg/mL, partner 1 µg/mL	0.925
[6], first compound 2 µg/mL, partner 2 µg/mL	0.809
[6], first compound 4 µg/mL, partner 0.5 µg/mL	0.956
[6], first compound 4 µg/mL, partner 1 µg/mL	0.908
[6], first compound 4 µg/mL, partner 2 µg/mL	0.839
[6], first compound 8 µg/mL, partner 0.0625 µg/mL	0.905
[6], first compound 8 µg/mL, partner 0.125 µg/mL	0.921
[6], first compound 8 µg/mL, partner 0.25 µg/mL	0.945
[7], first compound 1 µg/mL, partner 0.5 µg/mL	0.88
[7], first compound 1 µg/mL, partner 1 µg/mL	0.709
[7], first compound 2 µg/mL, partner 0.5 µg/mL	0.915
[7], first compound 2 µg/mL, partner 1 µg/mL	0.679
[7], first compound 4 µg/mL, partner 0.5 µg/mL	0.797
[7], first compound 4 µg/mL, partner 1 µg/mL	0.8
[8], first compound 1 µg/mL, partner 0.15 µg/mL	0.905
[8], first compound 1 µg/mL, partner 0.3 µg/mL	0.895
[8], first compound 2 µg/mL, partner 0.15 µg/mL	0.923
[8], first compound 2 µg/mL, partner 0.3 µg/mL	0.902
[8], first compound 4 µg/mL, partner 0.15 µg/mL	0.92
[8], first compound 4 µg/mL, partner 0.3 µg/mL	0.913

fitness
Settings	first compound 1 µg/mL	first compound 2 µg/mL	first compound 4 µg/mL
[5], partner 0.0625 µg/mL	0.887	0.905	0.901
[5], partner 0.125 µg/mL	0.878	0.876	0.901
[5], partner 0.25 µg/mL	0.983	0.919	0.993
[6], partner 0.0625 µg/mL	≥ 1	≥ 1	≥ 1
[6], partner 0.125 µg/mL	≥ 1	≥ 1	≥ 1
[6], partner 0.25 µg/mL	≥ 1	≥ 1	≥ 1
[7], partner 0.0625 µg/mL	≥ 1	≥ 1	0.964
[7], partner 0.125 µg/mL	≥ 1	0.995	0.955
[7], partner 0.25 µg/mL	0.944	0.971	0.95
[8], partner 0.5 µg/mL	0.992	0.99	0.928
[8], partner 1 µg/mL	0.988	0.986	0.917
[8], partner 2 µg/mL	0.906	0.93	0.925

CC[C@H]1OC(=O)[C@H](C)C(=O)[C@H](C)[C@@H](O[C@@H]2O[C@H](C)C[C@H](N(C)C)[C@H]2O)[C@](C)(OC)C[C@@H](C)C(=O)[C@H](C)[C@H]2N(CCCCn3cnc(-c4cccnc4)c3)C(=O)O[C@]12C [Telithromycin]
Settings	MIC [µg/mL]
[9]	0.15 (≈ 0.185 µM)
[10]	0.15 (≈ 0.185 µM)
[11]	0.04 (≈ 0.0493 µM)

Oc1cc(Cl)ccc1Oc1ccc(Cl)cc1Cl [Triclosan]
Settings	MIC [µg/mL]
[10]	0.08 (≈ 0.276 µM)
[11]	16 (≈ 55.3 µM)

CC1=C\[C@@H](O)CC(=O)Cc2nc(co2)C(=O)N2CCC=C2C(=O)O[C@H](C(C)C)[C@H](C)/C=C/C(=O)NC\C=C\1 [Virginiamycin M1]
Settings	MIC [µg/mL]
[9]	2 (≈ 3.81 µM)
[11]	4 (≈ 7.61 µM)
[12]	0.5 (≈ 0.951 µM)

fitness
Settings	0.0625 µg/mL	0.125 µg/mL	0.25 µg/mL	0.5 µg/mL	1 µg/mL	2 µg/mL
[5]	0.956	0.943	0.959	–	–	–
[6]	0.989	1	≥ 1	–	–	–
[7]	0.994	≥ 1	≥ 1	–	–	–
[8]	–	–	–	≥ 1	0.997	0.994
